pEC50, pKi: −log10 of the molar value.
Columns and labels:
[1] = biological target: human adenosine A2B receptor (Homo sapiens (Human), UniProt P29275); assay: Adenosine A2B receptor cyclic AMP GS assay (Example B); assay type: cell-based; details: HEK-293 cells expressing human A2B, agonist NECA 12 nM, cAMP accumulation (FRET); read-out: A2B_cAMP_EC50
Method: Example B. Adenosine A2B Receptor Cyclic AMP GS Assay
Stably transfected HEK-293 cells expressing the human adenosine A2B receptor (Perkin Elmer) were maintained in MEM culture medium with 10% FBS and 100 μg/ml Geneticin (Life Technologies). 18 to 24 hours prior to assay, geneticin was removed from culture. The cisbio cAMP-GS Dynamic kit utilizing the FRET (Fluorescence Resonance Energy Transfer) technology was used to measure cAMP accumulation in the cells. Compounds of the present disclosure at an appropriate concentration were mixed with 10000 cells/well in white 96 well half area plates (Perkin Elmer) for 30 min at RT gently shaking. Agonist, NECA (R&D Technologies) at 12 nM was added to each well for 60 min at RT gently shaking. Detection reagents, d2-labeled cAMP (acceptor) and anti-cAMP cryptate (donor) were added to each well for 60 min at RT gently shaking. Plates were read on Pherastar (BMG Labtech), fluorescence ratio 665/620 was calculated and EC50 determination was performed by fitting the curve of percent of control versus the log of the compound concentration using GraphPad Prism.

[2] = biological target: Adenosine A2A (Homo sapiens (Human), UniProt P29274); assay: A2A Tag-lite HTRF assay (Example C); details: Tag-lite Adenosine A2A labeled cells, Red antagonist fluorescent ligand 12.5 nM, one-site competitive binding; read-out: A2A_Ki
Method: Example C. A2A Tag-Lite® HTRF Assay
Assays were conducted in black low volume 384-well polystyrene plates (Greiner 784076-25) in a final volume of 10 μL. Test compounds were first serially diluted in DMSO and 100 nl added to the plate wells before the addition of other reaction components. The final concentration of DMSO was 1%. Tag-lite® Adenosine A2A labeled cells (CisBio C1TT1A2A) were diluted 1:5 into Tag-lite buffer (CisBio LABMED) and spun 1200 g for 5 mins. The pellet was resuspended at a volume 10.4× the initial cell suspension volume in Tag-lite buffer, and Adenosine A2A Receptor Red antagonist fluorescent ligand (CisBio L0058RED) added at 12.5 nM final concentration. 10 ul of the cell and ligand mix was added to the assay wells and incubated at room temperature for 45 minutes before reading on a PHERAstar FS plate reader (BMG Labtech) with HTRF 337/620/665 optical module. Percent binding of the fluorescent ligand was calculated; where 100 nM of A2A antagonist control ZM 241385 (Tocris 1036) displaces the ligand 100% and 1% DMSO has 0% displacement. The % binding data versus the log of the inhibitor concentration was fitted to a one-site competitive binding model (GraphPad Prism version 7.02) where the ligand constant=12.5 nM and the ligand Kd=1.85 nM.

Chain of Adenosine A2A (P29274 whole entry): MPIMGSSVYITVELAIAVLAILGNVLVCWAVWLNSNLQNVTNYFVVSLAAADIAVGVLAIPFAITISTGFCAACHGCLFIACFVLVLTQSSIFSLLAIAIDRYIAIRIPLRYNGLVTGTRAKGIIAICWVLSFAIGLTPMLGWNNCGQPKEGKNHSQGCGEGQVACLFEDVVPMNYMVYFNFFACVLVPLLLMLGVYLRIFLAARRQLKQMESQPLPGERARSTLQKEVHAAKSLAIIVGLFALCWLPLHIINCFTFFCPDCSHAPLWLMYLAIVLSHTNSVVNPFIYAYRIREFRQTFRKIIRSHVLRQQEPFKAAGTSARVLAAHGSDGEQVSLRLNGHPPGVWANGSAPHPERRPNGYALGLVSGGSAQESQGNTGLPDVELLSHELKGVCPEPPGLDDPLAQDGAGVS
Chain of human adenosine A2B receptor (P29275 whole entry): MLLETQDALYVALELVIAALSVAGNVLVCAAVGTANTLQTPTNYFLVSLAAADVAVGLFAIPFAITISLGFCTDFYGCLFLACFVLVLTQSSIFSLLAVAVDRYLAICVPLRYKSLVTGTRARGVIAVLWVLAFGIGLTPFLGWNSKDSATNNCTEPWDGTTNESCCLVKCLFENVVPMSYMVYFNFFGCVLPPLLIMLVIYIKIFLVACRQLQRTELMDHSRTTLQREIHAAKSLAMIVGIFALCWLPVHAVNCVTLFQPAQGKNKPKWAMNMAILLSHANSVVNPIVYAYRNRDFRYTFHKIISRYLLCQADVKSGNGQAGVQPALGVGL

pEC50 [1] | pKi [2] | Compound
7.00 to 8.00 | ≥ 8.00 | Cc1cccc(COc2nc3c(-c4ccc(=O)n(C)c4)c(-c4cccc(C#N)c4)nc(N)n3n2)n1 [Example 55, 3-(5-amino-8-(1-methyl-6-oxo-1,6-dihydropyridin-3-yl)-2-((6-methylpyridin-2-yl)methoxy)-[1,2,4]triazolo[1,5-c]pyrimidin-7-yl)benzonitrile]
7.00 to 8.00 | ≥ 8.00 | Cc1cccc(COc2nc3c(-c4ccncc4C)c(-c4cccc(C#N)c4)nc(N)n3n2)n1 [Example 57, 3-(5-amino-2-((6-methylpyridin-2-yl)methoxy)-8-(3-methylpyridin-4-yl)-[1,2,4]triazolo[1,5-c]pyrimidin-7-yl)benzonitrile]
6.00 to 7.00 | ≥ 8.00 | Cc1cc(-c2c(-c3cccc(C#N)c3)nc(N)n3nc(OCc4cccc(C)n4)nc23)cc(C)n1 [Example 58, 3-(5-amino-8-(2,6-dimethylpyridin-4-yl)-2-((6-methylpyridin-2-yl)methoxy)-[1,2,4]triazolo[1,5-c]pyrimidin-7-yl)benzonitrile]
7.00 to 8.00 | ≥ 8.00 | COc1cc(-c2c(-c3cccc(C#N)c3)nc(N)n3nc(OCc4cccc(C)n4)nc23)cc(C)n1 [Example 59, 3-(5-amino-8-(2-methoxy-6-methylpyridin-4-yl)-2-((6-methylpyridin-2-yl)methoxy)-[1,2,4]triazolo[1,5-c]pyrimidin-7-yl)benzonitrile]
7.00 to 8.00 | ≥ 8.00 | Cc1cccc(CNc2nc3c(-c4ccncn4)c(-c4cccc(C#N)c4)nc(N)n3n2)n1 [Example 65, 3-(5-amino-2-(((6-methylpyridin-2-yl)methyl)amino)-8-(pyrimidin-4-yl)-[1,2,4]triazolo[1,5-c]pyrimidin-7-yl)benzonitrile]
7.00 to 8.00 | ≥ 8.00 | Cc1cccc(CNc2nc3c(-c4ccc(=O)n(C)n4)c(-c4cccc(C#N)c4)nc(N)n3n2)n1 [Example 67, 3-(5-amino-8-(1-methyl-6-oxo-1,6-dihydropyridazin-3-yl)-2-(((6-methylpyridin-2-yl)methyl)amino)-[1,2,4]triazolo[1,5-c]pyrimidin-7-yl)benzonitrile]
≥ 8.00 | ≥ 8.00 | Cc1cccc(CNc2nc3c(-c4ccncc4C)c(-c4cccc(C#N)c4)nc(N)n3n2)n1 [Example 68, 3-(5-amino-2-(((6-methylpyridin-2-yl)methyl)amino)-8-(3-methylpyridin-4-yl)-[1,2,4]triazolo[1,5-c]pyrimidin-7-yl)benzonitrile]
< 6.00 | ≥ 8.00 | Cc1cc(-c2c(-c3cccc(C#N)c3)nc(N)n3nc(NCc4cccc(C)n4)nc23)cc(C)n1 [Example 69, 3-(5-amino-8-(2,6-dimethylpyridin-4-yl)-2-(((6-methylpyridin-2-yl)methyl)amino)-[1,2,4]triazolo[1,5-c]pyrimidin-7-yl)benzonitrile]
6.00 to 7.00 | ≥ 8.00 | COc1cc(-c2c(-c3cccc(C#N)c3)nc(N)n3nc(NCc4cccc(C)n4)nc23)cc(C)n1 [Example 70, 3-(5-amino-8-(2-methoxy-6-methylpyridin-4-yl)-2-(((6-methylpyridin-2-yl)methyl)amino)-[1,2,4]triazolo[1,5-c]pyrimidin-7-yl)benzonitrile]

Reference: US20250034153A1, “TRIAZOLOPYRIMIDINES AS A2A / A2B INHIBITORS” (Incyte Corporation, priority 2019, published 2025)
